According to US6525001B1, “Substituted pyrimidine and pyridine herbicides” (Mid-American Commercialization Corporation, priority 1997, dated 2003):

Experiments:
Assay type in all cases: in vivo
Design in all cases: key: 0 is no effect; 10 is complete control
[1] = tested on: blackgrass (Alopecurus myosuroides); test: Test B pre-/postemergence
How it was run: (§1)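 Scored visually 0 (none) to 10 (complete control) against untreated plants after twelve to sixteen greenhouse days. Test chemicals, formulated in surfactant-containing non-phytotoxic solvent, applied to soil after planting and, separately, onto 1- to 4-leaf (2–18 cm) plants.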

[2] = tested on: cocklebur (Xanthium strumarium); test: Test B pre-/postemergence
How it was run: as §1

[3] = tested on: corn (Zea mays); test: Test B pre-/postemergence
How it was run: as §1

[4] = tested on: crabgrass (Digitaria sanguinalis); test: Test B pre-/postemergence
How it was run: as §1

[5] = tested on: pigweed (Amaranthus retroflexus); test: Test B pre-/postemergence
How it was run: as §1

[6] = tested on: purple nutsedge (Cyperus rotundus); test: Test B pre-/postemergence
How it was run: as §1

[7] = tested on: rape (Brassica napus); test: Test B pre-/postemergence
How it was run: as §1

[8] = tested on: soybean (Glycine max); test: Test B pre-/postemergence
How it was run: as §1

[9] = tested on: sugar beet (Beta vulgaris); test: Test B pre-/postemergence
How it was run: as §1

[10] = tested on: velvetleaf (Abutilon theophrasti); test: Test B pre-/postemergence
How it was run: as §1

[11] = tested on: wheat (Triticum aestivum); test: Test B pre-/postemergence
How it was run: as §1

[12] = tested on: bamyardgrass (Echinochloa crus-galli); test: Test B flood test
How it was run: (§2)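 Flood test on plants grown to the 2-leaf stage; treated plants kept in greenhouse twelve to sixteen days, then visually rated against controls on a 0 (no effect) to 10 (complete control) scale.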

[13] = tested on: duck salad (Heteranthera limosa); test: Test B flood test
How it was run: as §2

[14] = tested on: rice (Oryza sativa); test: Test B flood test
How it was run: as §2

[15] = tested on: smallflower flatsedge (Cyperus difformis); test: Test B flood test
How it was run: as §2

[16] = Rate 62 g/ha, Postemergence (flood test)
[17] = Rate 125 g/ha, Postemergence, flood test
[18] = Rate 250 g/ha, Postemergence (flood test species)
[19] = Rate 500 g/ha, Postemergence (flood test species)

With `Cc1cnc(-c2ccc(OC(F)(F)F)cc2)nc1Cc1cccc(C(F)(F)F)c1` [Compound 16] the “Plant response rating, Blackgrass” value ([1]; Rate 62 g/ha, Postemergence) was 1, the “Blackgrass plant response rating” value ([1]; Rate 62 g/ha, Preemergence) was 0 and the “Plant response rating, Blackgrass” value ([1]; Rate 125 g/ha, Postemergence) was 1. For the same compound, the “Blackgrass plant response rating” value ([1]; Rate 125 g/ha, Preemergence) was 0, the “Plant response rating, Blackgrass” value ([1]; Rate 250 g/ha, Postemergence) was 2 and the “Plant response rating, Blackgrass” value ([1]; Rate 250 g/ha, Preemergence) was 2. The “Plant response rating, Blackgrass” value ([1]; Rate 500 g/ha, Postemergence) was 3, the “Plant response rating, Blackgrass” value ([1]; Rate 500 g/ha, Preemergence) was 4 and the “Plant response rating, Cocklebur” value ([2]; Rate 62 g/ha, Postemergence) was 4. The “Cocklebur plant response rating” value ([2]; Rate 62 g/ha, Preemergence) was 0, the “Plant response rating, Cocklebur” value ([2]; Rate 125 g/ha, Postemergence) was 4 and the “Cocklebur plant response rating” value ([2]; Rate 125 g/ha, Preemergence) was 0. For the same compound, the “Plant response rating, Cocklebur” value ([2]; Rate 250 g/ha, Postemergence) was 5, the “Plant response rating, Cocklebur” value ([2]; Rate 250 g/ha, Preemergence) was 0 and the “Plant response rating, Cocklebur” value ([2]; Rate 500 g/ha, Postemergence) was 6. For the same compound, the “Plant response rating, Cocklebur” value ([2]; Rate 500 g/ha, Preemergence) was 0, the “Plant response rating, Corn” value ([3]; Rate 62 g/ha, Postemergence) was 1 and the “Corn plant response rating” value ([3]; Rate 62 g/ha, Preemergence) was 0. For the same compound, the “Plant response rating, Corn” value ([3]; Rate 125 g/ha, Postemergence) was 1, the “Corn plant response rating” value ([3]; Rate 125 g/ha, Preemergence) was 0 and the “Plant response rating, Corn” value ([3]; Rate 250 g/ha, Postemergence) was 1. The “Plant response rating, Corn” value ([3]; Rate 250 g/ha, Preemergence) was 0, the “Plant response rating, Corn” value ([3]; Rate 500 g/ha, Postemergence) was 1 and the “Plant response rating, Corn” value ([3]; Rate 500 g/ha, Preemergence) was 0. The “Plant response rating, Crabgrass” value ([4]; Rate 62 g/ha, Postemergence) was 2, the “Crabgrass plant response rating” value ([4]; Rate 62 g/ha, Preemergence) was 0 and the “Plant response rating, Crabgrass” value ([4]; Rate 125 g/ha, Postemergence) was 2. For the same compound, the “Crabgrass plant response rating” value ([4]; Rate 125 g/ha, Preemergence) was 0, the “Plant response rating, Crabgrass” value ([4]; Rate 250 g/ha, Postemergence) was 2 and the “Plant response rating, Crabgrass” value ([4]; Rate 250 g/ha, Preemergence) was 2. The “Plant response rating, Crabgrass” value ([4]; Rate 500 g/ha, Postemergence) was 7, the “Plant response rating, Crabgrass” value ([4]; Rate 500 g/ha, Preemergence) was 8 and the “Plant response rating, Redroot pigweed” value ([5]; Rate 62 g/ha, Postemergence) was 5. The “Redroot pigweed plant response rating” value ([5]; Rate 62 g/ha, Preemergence) was 0, the “Plant response rating, Redroot pigweed” value ([5]; Rate 125 g/ha, Postemergence) was 6 and the “Redroot pigweed plant response rating” value ([5]; Rate 125 g/ha, Preemergence) was 0. The “Plant response rating, Redroot pigweed” value ([5]; Rate 250 g/ha, Postemergence) was 8, the “Plant response rating, Redroot pigweed” value ([5]; Rate 250 g/ha, Preemergence) was 8 and the “Plant response rating, Redroot pigweed” value ([5]; Rate 500 g/ha, Postemergence) was 9. For the same compound, the “Plant response rating, Redroot pigweed” value ([5]; Rate 500 g/ha, Preemergence) was 8, the “Plant response rating, Nutsedge” value ([6]; Rate 62 g/ha, Postemergence) was 0 and the “Nutsedge plant response rating” value ([6]; Rate 62 g/ha, Preemergence) was 0. The “Plant response rating, Nutsedge” value ([6]; Rate 125 g/ha, Postemergence) was 0, the “Nutsedge plant response rating” value ([6]; Rate 125 g/ha, Preemergence) was 0 and the “Plant response rating, Nutsedge” value ([6]; Rate 250 g/ha, Postemergence) was 0. For the same compound, the “Plant response rating, Nutsedge” value ([6]; Rate 250 g/ha, Preemergence) was 0, the “Plant response rating, Nutsedge” value ([6]; Rate 500 g/ha, Postemergence) was 1 and the “Plant response rating, Nutsedge” value ([6]; Rate 500 g/ha, Preemergence) was 0. For the same compound, the “Plant response rating, Rape” value ([7]; Rate 62 g/ha, Postemergence) was 1, the “Rape plant response rating” value ([7]; Rate 62 g/ha, Preemergence) was 0 and the “Plant response rating, Rape” value ([7]; Rate 125 g/ha, Postemergence) was 2. For the same compound, the “Rape plant response rating” value ([7]; Rate 125 g/ha, Preemergence) was 0, the “Plant response rating, Rape” value ([7]; Rate 250 g/ha, Postemergence) was 2 and the “Plant response rating, Rape” value ([7]; Rate 250 g/ha, Preemergence) was 0. The “Plant response rating, Rape” value ([7]; Rate 500 g/ha, Postemergence) was 5, the “Plant response rating, Rape” value ([7]; Rate 500 g/ha, Preemergence) was 1 and the “Plant response rating, Soybean” value ([8]; Rate 62 g/ha, Postemergence) was 3. For the same compound, the “Soybean plant response rating” value ([8]; Rate 62 g/ha, Preemergence) was 0, the “Plant response rating, Soybean” value ([8]; Rate 125 g/ha, Postemergence) was 3 and the “Soybean plant response rating” value ([8]; Rate 125 g/ha, Preemergence) was 0. For the same compound, the “Plant response rating, Soybean” value ([8]; Rate 250 g/ha, Postemergence) was 4, the “Plant response rating, Soybean” value ([8]; Rate 250 g/ha, Preemergence) was 0 and the “Plant response rating, Soybean” value ([8]; Rate 500 g/ha, Postemergence) was 4. For the same compound, the “Plant response rating, Soybean” value ([8]; Rate 500 g/ha, Preemergence) was 0, the “Plant response rating, Sugarbeets” value ([9]; Rate 62 g/ha, Postemergence) was 8 and the “Sugarbeets plant response rating” value ([9]; Rate 62 g/ha, Preemergence) was 0. The “Plant response rating, Sugarbeets” value ([9]; Rate 125 g/ha, Postemergence) was 8, the “Sugarbeets plant response rating” value ([9]; Rate 125 g/ha, Preemergence) was 1 and the “Plant response rating, Sugarbeets” value ([9]; Rate 250 g/ha, Postemergence) was 9. The “Plant response rating, Sugarbeets” value ([9]; Rate 250 g/ha, Preemergence) was 7, the “Plant response rating, Sugarbeets” value ([9]; Rate 500 g/ha, Postemergence) was 9 and the “Plant response rating, Sugarbeets” value ([9]; Rate 500 g/ha, Preemergence) was 9. The “Plant response rating, Velvetleaf” value ([10]; Rate 62 g/ha, Postemergence) was 1, the “Velvetleaf plant response rating” value ([10]; Rate 62 g/ha, Preemergence) was 0 and the “Plant response rating, Velvetleaf” value ([10]; Rate 125 g/ha, Postemergence) was 2. For the same compound, the “Velvetleaf plant response rating” value ([10]; Rate 125 g/ha, Preemergence) was 0, the “Plant response rating, Velvetleaf” value ([10]; Rate 250 g/ha, Postemergence) was 2 and the “Plant response rating, Velvetleaf” value ([10]; Rate 250 g/ha, Preemergence) was 1. For the same compound, the “Plant response rating, Velvetleaf” value ([10]; Rate 500 g/ha, Postemergence) was 2, the “Plant response rating, Velvetleaf” value ([10]; Rate 500 g/ha, Preemergence) was 1 and the “Plant response rating, Wheat” value ([11]; Rate 62 g/ha, Postemergence) was 0. For the same compound, the “Wheat plant response rating” value ([11]; Rate 62 g/ha, Preemergence) was 0, the “Plant response rating, Wheat” value ([11]; Rate 125 g/ha, Postemergence) was 0 and the “Wheat plant response rating” value ([11]; Rate 125 g/ha, Preemergence) was 0. The “Plant response rating, Wheat” value ([11]; Rate 250 g/ha, Postemergence) was 0, the “Plant response rating, Wheat” value ([11]; Rate 250 g/ha, Preemergence) was 0 and the “Plant response rating, Wheat” value ([11]; Rate 500 g/ha, Postemergence) was 1. The “Plant response rating, Wheat” value ([11]; Rate 500 g/ha, Preemergence) was 0, the “Plant response rating, Barnyardgrass” value [12, 16] was 2 and the “Plant response rating, Barnyardgrass” value [12, 17] was 3. For the same compound, the “Plant response rating, Barnyardgrass” value [12, 18] was 4, the “Plant response rating, Barnyardgrass” value [12, 19] was 4 and the “Plant response rating, Ducksalad” value [13, 16] was 0. The “Plant response rating, Ducksalad” value [13, 17] was 0, the “Plant response rating, Ducksalad” value [13, 18] was 1 and the “Plant response rating, Ducksalad” value [13, 19] was 2. The “Plant response rating, Rice” value [14, 16] was 1, the “Plant response rating, Rice” value [14, 17] was 1 and the “Plant response rating, Rice” value [14, 18] was 3. For the same compound, the “Plant response rating, Rice” value [14, 19] was 4, the “Plant response rating, S. Flatsedge” value [15, 16] was 1 and the “Plant response rating, S. Flatsedge” value [15, 17] was 2. The “Plant response rating, S. Flatsedge” value [15, 18] was 2 and the “Plant response rating, S. Flatsedge” value [15, 19] was 3.
